Assay [1] has as its target T1, D(4) dopamine receptor (Homo sapiens) (UniProt P21917).
T1 sequence (whole entry): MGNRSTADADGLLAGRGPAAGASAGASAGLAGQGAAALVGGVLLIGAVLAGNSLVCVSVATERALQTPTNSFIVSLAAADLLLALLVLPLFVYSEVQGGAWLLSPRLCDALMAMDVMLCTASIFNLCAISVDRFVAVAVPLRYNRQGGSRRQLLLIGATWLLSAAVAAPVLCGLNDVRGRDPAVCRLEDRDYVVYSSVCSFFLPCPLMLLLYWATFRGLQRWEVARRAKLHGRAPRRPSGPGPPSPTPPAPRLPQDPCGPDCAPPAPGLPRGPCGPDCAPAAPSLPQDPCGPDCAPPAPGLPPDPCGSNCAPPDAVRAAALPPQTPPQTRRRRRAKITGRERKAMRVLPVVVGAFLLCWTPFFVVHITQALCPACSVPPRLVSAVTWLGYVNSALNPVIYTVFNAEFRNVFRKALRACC
Description: Inhibition of Dopamine D4.2 at 10 µM in the Eurofins-Panlabs radioligand binding assay (Eurofins_assay_219900). As to conditions: Compound concentration 10.0 uM. Further details: ligand concentration 0.5 nM.

In assay [2] the target is Adenosine receptor A2a (Homo sapiens) (UniProt P29274). The following applies: Compound concentration 10.0 uM.
Assay [3] concerns the target Mu-type opioid receptor (Homo sapiens) (UniProt P35372). Description: my(MOP) (h) Eurofins-Cerep Cellular and Nuclear Receptor Functional Assays. As to conditions: Compound concentration 10.0 uM.
Assay [4] addresses Melatonin receptor type 1A (Homo sapiens) (UniProt P48039). As to the kind of experiment: Inhibition of Melatonin MT1 at 10 µM in the Eurofins-Panlabs radioligand binding assay (Eurofins_assay_251600). As to conditions: Compound concentration 10.0 uM. Further details: ligand concentration 0.05 nM.
Assay [5] concerns the target D(2) dopamine receptor (Homo sapiens) (UniProt P14416). The following applies: Compound concentration 10.0 uM.
Assay [6] concerns the target Sodium-dependent dopamine transporter (Homo sapiens) (UniProt Q01959). As to conditions: Compound concentration 10.0 uM.
For assay [7], the species on record is Rattus norvegicus. Description: Inhibition of Glutamate, NMDA, Phencyclidine at 10 µM in the Eurofins-Panlabs radioligand binding assay (Eurofins_assay_233000). The format is protein-complex assay. As to conditions: Compound concentration 10.0 uM.
For assay [8], the target named is Endothelin-1 receptor (Homo sapiens) (UniProt P25101). The following applies: Compound concentration 10.0 uM.
The target of assay [9] is Kappa-type opioid receptor (Homo sapiens) (UniProt P41145). As to the kind of experiment: kappa(KOP) (h) Eurofins-Cerep Cellular and Nuclear Receptor Functional Assays. The following applies: Compound concentration 10.0 uM.
Assay [10] concerns the target Estrogen receptor (Homo sapiens) (UniProt P03372). As to conditions: Compound concentration 10.0 uM.
The species entered for assay [11] is Rattus norvegicus. Description: Inhibition of Rolipram at 10 µM in the Eurofins-Panlabs radioligand binding assay (Eurofins_assay_268811). In kind it is protein assay. As to conditions: Compound concentration 10.0 uM. Also on record: ligand concentration 1.8 nM.
The target in assay [12] is Endothelin receptor type B (Homo sapiens) (UniProt P24530). The following applies: Compound concentration 10.0 uM.
Assay [13] has as its target T2, Proteinase-activated receptor 1 (Homo sapiens, UniProt P25116).
T2 sequence (P25116 whole entry): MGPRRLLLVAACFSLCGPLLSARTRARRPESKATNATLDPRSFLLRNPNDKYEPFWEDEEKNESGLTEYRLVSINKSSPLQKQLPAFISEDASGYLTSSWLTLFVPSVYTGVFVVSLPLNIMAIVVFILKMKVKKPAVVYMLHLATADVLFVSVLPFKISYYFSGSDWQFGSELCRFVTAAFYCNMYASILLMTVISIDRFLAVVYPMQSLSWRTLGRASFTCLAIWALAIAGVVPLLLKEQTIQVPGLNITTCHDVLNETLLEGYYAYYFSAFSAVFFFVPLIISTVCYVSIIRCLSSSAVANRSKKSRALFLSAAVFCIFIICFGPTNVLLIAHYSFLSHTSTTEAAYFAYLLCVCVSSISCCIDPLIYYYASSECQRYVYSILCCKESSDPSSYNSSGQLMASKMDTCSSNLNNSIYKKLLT
Description: Binding assay (platelet membranes).

Assay [14] concerns the target D(1A) dopamine receptor (Homo sapiens) (UniProt P21728). As to conditions: Compound concentration 10.0 uM.
Assay [15] addresses Glucocorticoid receptor (Homo sapiens) (UniProt P04150). As to the kind of experiment: Glucocorticoid Eurofins-Panlabs radioligand binding assay. As to conditions: Compound concentration 10.0 uM.
For the next assay, the species on record is Mus musculus. As to the kind of experiment: Inhibition of Phorbol Ester at 10 µM in the Eurofins-Panlabs radioligand binding assay (Eurofins_assay_264500). Also on record: ligand concentration 3 nM. The following applies: Compound concentration 10.0 uM.
The target of assay [16] is Sodium-dependent noradrenaline transporter (Homo sapiens) (UniProt P23975). As to conditions: Compound concentration 10.0 uM.
In assay [17] the target is Cannabinoid receptor 1 (Homo sapiens) (UniProt P21554). The following applies: Compound concentration 10.0 uM.
Assay [18] concerns Platelet. Description: Inhibition of platelet aggregation (human plasma, TRAP-6) (IC90).
Assay [19] addresses B1 bradykinin receptor (Homo sapiens) (UniProt P46663). As to the kind of experiment: Inhibition of Bradykinin B1 at 10 µM in the Eurofins-Panlabs radioligand binding assay (Eurofins_assay_212510). The following applies: Compound concentration 10.0 uM.
Assay [20] addresses T3, Muscarinic acetylcholine receptor M2 (Homo sapiens) (UniProt P08172).
T3 sequence (whole entry): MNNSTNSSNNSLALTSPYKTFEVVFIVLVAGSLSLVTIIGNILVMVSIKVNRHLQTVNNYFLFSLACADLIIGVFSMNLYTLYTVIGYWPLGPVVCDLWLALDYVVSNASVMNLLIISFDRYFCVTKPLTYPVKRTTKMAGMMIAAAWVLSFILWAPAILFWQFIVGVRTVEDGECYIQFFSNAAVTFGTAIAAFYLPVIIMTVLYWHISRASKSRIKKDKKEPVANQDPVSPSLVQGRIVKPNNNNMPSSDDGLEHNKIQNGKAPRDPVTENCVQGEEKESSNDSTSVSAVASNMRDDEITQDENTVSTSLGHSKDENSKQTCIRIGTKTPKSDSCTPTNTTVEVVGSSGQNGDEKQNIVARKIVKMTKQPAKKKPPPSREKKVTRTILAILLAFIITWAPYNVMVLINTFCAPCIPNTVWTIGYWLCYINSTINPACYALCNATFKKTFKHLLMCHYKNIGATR
As to conditions: Compound concentration 10.0 uM.

Assay [21] has as its system Platelet. As to the kind of experiment: Inhibition of platelet aggregation (human plasma, thrombin). The format is cell-based.
The target of assay [22] is 5-hydroxytryptamine receptor 1E (Homo sapiens) (UniProt P28566). The following applies: Compound concentration 10.0 uM.
Assay [23] relates to Platelet. As to the kind of experiment: Inhibition of platelet aggregation (human plasma, TRAP-6). The format is cell-based.

pIC50: −log10 of the molar value. The source made the active and inactive calls. No cut-off for these calls is given here.

Chain of Mu-type opioid receptor (Homo sapiens) (P35372 whole entry): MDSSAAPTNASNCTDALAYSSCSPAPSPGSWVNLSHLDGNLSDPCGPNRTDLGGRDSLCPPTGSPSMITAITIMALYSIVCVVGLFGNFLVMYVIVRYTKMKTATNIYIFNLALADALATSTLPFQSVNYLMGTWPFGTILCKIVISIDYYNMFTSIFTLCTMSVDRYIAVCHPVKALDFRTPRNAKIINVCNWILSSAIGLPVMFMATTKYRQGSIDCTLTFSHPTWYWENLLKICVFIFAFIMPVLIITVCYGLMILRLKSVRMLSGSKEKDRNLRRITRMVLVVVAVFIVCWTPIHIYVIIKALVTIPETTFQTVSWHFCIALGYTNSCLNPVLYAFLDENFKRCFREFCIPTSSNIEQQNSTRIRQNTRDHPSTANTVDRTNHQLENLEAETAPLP
Chain of Kappa-type opioid receptor (Homo sapiens) (P41145 whole entry): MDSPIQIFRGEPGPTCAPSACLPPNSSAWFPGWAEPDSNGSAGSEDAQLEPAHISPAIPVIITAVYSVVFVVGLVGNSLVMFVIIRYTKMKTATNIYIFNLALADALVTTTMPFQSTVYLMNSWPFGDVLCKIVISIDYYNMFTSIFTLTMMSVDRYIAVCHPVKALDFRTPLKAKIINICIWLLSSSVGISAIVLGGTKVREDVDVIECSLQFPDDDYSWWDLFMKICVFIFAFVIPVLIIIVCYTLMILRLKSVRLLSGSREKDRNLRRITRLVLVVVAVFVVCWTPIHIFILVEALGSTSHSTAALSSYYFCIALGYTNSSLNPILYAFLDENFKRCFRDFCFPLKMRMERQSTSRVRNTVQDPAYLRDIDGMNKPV
Chain of D(1A) dopamine receptor (Homo sapiens) (P21728 whole entry): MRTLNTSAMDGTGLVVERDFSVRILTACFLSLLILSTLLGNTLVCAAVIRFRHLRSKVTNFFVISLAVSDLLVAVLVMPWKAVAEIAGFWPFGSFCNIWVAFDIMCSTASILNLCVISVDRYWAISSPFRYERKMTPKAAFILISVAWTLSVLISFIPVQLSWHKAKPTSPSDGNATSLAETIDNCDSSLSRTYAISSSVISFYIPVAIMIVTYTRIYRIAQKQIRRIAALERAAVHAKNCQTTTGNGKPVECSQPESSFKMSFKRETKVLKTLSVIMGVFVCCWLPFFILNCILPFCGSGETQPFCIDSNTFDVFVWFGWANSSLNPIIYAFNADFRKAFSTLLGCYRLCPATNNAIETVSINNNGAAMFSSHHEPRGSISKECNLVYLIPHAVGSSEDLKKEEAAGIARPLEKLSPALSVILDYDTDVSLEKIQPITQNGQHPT
Chain of Estrogen receptor (Homo sapiens) (P03372 whole entry): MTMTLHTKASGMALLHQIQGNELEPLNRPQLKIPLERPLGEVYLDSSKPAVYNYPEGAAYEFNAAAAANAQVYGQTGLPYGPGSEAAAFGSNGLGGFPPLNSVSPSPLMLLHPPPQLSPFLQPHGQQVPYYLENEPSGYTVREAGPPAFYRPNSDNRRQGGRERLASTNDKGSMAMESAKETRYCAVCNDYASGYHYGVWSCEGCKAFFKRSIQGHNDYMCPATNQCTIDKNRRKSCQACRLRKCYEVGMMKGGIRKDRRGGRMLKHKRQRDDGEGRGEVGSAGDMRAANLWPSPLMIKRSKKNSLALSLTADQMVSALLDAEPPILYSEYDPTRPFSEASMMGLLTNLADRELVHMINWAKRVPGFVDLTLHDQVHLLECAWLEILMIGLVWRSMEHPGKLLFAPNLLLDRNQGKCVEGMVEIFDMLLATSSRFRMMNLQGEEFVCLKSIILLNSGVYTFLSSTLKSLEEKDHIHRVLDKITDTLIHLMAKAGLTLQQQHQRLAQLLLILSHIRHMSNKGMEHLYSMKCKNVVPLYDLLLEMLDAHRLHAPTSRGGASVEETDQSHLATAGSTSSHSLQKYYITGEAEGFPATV
Chain of 5-hydroxytryptamine receptor 1E (Homo sapiens) (P28566 whole entry): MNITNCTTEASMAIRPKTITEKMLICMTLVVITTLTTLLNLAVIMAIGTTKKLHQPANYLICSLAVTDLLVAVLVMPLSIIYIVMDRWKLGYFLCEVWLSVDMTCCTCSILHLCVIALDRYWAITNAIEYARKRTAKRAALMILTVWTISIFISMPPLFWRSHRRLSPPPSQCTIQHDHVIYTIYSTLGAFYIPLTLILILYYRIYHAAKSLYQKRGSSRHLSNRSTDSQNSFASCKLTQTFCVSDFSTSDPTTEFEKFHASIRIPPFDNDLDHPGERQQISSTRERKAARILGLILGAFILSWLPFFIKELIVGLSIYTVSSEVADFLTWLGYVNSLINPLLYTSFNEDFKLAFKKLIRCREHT
Chain of Endothelin-1 receptor (Homo sapiens) (P25101 whole entry): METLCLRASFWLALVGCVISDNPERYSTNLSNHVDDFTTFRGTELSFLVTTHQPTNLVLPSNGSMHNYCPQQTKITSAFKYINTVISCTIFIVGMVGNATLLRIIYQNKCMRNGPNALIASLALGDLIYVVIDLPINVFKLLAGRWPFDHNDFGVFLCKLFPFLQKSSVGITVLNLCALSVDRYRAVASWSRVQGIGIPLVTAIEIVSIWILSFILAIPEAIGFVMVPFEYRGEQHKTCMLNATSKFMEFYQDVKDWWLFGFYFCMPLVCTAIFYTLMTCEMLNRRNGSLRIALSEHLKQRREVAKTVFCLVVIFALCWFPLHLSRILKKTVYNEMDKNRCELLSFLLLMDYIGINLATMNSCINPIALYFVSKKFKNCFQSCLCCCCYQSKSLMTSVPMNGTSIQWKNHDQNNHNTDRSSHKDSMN
Chain of Glucocorticoid receptor (Homo sapiens) (P04150 whole entry): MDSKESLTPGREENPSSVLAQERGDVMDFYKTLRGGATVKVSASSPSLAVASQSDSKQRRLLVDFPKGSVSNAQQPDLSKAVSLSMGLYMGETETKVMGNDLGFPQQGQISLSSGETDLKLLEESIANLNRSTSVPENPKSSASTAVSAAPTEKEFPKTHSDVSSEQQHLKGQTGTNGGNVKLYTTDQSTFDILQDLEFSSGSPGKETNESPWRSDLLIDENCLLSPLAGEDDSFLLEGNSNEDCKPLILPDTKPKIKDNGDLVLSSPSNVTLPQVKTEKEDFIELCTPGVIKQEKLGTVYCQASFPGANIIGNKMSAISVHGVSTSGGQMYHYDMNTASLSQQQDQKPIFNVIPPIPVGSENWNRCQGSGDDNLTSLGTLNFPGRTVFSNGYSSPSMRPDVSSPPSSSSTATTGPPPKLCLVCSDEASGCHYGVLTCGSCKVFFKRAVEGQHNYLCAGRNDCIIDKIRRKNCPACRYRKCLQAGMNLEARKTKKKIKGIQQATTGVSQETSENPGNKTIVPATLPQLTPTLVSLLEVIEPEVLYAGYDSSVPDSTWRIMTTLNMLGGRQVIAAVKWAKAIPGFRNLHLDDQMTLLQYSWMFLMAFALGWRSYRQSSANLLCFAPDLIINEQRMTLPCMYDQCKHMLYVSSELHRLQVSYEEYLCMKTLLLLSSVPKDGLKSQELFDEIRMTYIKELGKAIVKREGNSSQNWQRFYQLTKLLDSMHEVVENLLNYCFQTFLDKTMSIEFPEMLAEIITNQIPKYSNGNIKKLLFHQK
Chain of Cannabinoid receptor 1 (Homo sapiens) (P21554 whole entry): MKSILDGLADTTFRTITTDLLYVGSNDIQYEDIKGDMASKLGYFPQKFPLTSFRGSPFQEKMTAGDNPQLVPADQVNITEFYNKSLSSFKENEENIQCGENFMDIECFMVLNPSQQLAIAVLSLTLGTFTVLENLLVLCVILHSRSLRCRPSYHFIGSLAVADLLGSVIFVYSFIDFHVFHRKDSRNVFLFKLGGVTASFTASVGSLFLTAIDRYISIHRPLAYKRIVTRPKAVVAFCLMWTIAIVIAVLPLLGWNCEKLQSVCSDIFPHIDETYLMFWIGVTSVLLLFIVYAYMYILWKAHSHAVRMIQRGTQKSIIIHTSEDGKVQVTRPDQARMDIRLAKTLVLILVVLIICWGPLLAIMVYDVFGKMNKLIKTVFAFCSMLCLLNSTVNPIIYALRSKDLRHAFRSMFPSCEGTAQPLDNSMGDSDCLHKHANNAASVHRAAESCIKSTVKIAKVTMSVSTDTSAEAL
Chain of Sodium-dependent noradrenaline transporter (Homo sapiens) (P23975 whole entry): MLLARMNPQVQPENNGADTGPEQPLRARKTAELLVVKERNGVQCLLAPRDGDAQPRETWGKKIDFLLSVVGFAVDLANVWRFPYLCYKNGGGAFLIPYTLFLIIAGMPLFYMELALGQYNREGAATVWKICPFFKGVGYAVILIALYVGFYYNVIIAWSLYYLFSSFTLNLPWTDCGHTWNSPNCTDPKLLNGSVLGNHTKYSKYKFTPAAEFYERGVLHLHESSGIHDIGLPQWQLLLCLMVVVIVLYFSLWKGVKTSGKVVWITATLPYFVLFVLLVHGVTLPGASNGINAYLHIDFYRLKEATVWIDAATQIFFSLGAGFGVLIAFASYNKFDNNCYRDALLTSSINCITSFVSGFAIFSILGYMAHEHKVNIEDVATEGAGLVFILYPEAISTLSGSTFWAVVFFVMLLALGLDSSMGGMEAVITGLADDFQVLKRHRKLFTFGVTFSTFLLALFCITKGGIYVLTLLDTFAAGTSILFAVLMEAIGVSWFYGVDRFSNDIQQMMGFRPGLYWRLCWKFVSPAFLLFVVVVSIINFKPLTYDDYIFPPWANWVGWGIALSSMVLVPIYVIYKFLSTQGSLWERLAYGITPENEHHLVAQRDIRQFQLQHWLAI
Chain of Endothelin receptor type B (Homo sapiens) (P24530 whole entry): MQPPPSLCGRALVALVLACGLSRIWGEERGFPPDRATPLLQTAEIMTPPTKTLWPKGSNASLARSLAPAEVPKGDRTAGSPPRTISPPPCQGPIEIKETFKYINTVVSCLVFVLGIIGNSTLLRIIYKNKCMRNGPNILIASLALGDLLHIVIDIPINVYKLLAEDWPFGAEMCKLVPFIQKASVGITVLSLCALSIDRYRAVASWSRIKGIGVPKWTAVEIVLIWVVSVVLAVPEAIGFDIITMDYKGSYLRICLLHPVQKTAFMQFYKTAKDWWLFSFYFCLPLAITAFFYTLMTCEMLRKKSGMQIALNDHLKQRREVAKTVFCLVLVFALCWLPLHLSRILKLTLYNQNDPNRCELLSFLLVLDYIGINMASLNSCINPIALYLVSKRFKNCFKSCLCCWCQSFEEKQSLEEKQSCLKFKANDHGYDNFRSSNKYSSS

Consider `O=C(N1CCS(=O)(=O)CC1)N1C[C@H](c2ccc(OC(F)(F)F)cc2)C[C@H](c2nc(C3CC3)no2)C1` [BAY-386], for which the inhibition (as a rule, the change of the read-out against control, counted positive when it falls) is -9% in assay [1]; 0% in assay [2]; 14% in assay [4]; 1% in assay [5]; 10% in assay [6]; 0% in the assay listed under Rattus norvegicus [7]. Also, the inhibition in assay [8] is 2%; in assay [10], -1%; in the assay listed under Rattus norvegicus [11], 3%; in [12], -4%; in [14], 4%; in assay [15] it was 9%. In addition, the inhibition is 5% in the assay filed under Mus musculus; -1.24% in assay [16]; 88% in assay [17]; 6% in [19]; -3% in assay [20]. The % Inhibition of Control Agonist Response (Mean n=2) turned out to be 3.7% in assay [3] and 4.5% in [9]. The % of Control Agonist Response (Mean n=2) in [3] is 1%; in [9], 20.6%. Also, the IC50 (as a rule, the concentration that inhibits the measured activity by half) in assay [13] was 56 nM (active). Also, the IC90 (commonly the concentration at which the effect reaches the 90% level) in the assay on Platelet [18] was determined as 680 nM. For the same compound, the pIC50 (commonly the IC50 on a negative log10 scale, so that one unit is a factor of ten) in the assay with Platelet [21] was 6.85.

For the compound `Cc1noc([C@H]2C[C@@H](c3ccc(C(F)(F)F)cc3)CN(C(=O)N3CCS(=O)(=O)C3)C2)n1` [BAY-448], in assay [22], the inhibition is 21.5%. The half-inhibitory concentration (IC50) in the assay on Platelet [23] is > 10000 nM (not active).

For the origin of these results see ChEMBL document CHEMBL4507269, “Data for DCP probe BAY-386” (2021).
